{"source": "patent US12213501B2", "about": "“Methods for modifying high intensity sweetener glycosides” (Optibiotix Limited, priority 2018, dated 2025)", "key": {"[1]": {"system": "trained sensory panel", "test": "Sensory profiling (QDA) of sweetener samples by trained sensory panel", "type": "in vivo, human", "settings": "for Sweet Taste Intensity: Table 3, concentration printed 0.032 g/L (steviol glycosides samples) or 0.024 g/L (others); for ES (equivalent sucrose concentration): from mean sweetness rating via Sweetness=15.5 (sucrose)-22.5; for ES (equivalent sucrose concentration) / Potency: concentration 0.032 or 0.024 g/L; for Bitter Taste / Cardboard/Stale Flavour / Cooked sugar flavour / Cooling Sensation / Crusty Bread Flavour / Liquorice Flavour / Metallic / Overall Strength of Off Taste/Flavour / Perfume Flavour / Salty Taste / Sour Taste / Sweet Taste / Bitter Aftertaste / Cooling Aftereffect / Liquorice Aftereffect / Sweet Aftertaste: mean rating, line scale 0-100, Stevia samples 0.32 g/L, Reb and Mogroside samples 0.24 g/L water; for Bitter Aftertaste / Cooling Aftereffect / Liquorice Aftereffect / Sweet Aftertaste: scored after 30 second delay; for Potency: sweet potency relative to sucrose; for liquorice flavour compared between sweeteners: unmodified sweeteners; for Mean Rating (0-100): sweetness as agreed by the panel"}, "[2]": {"test": "Initial tasting against sucrose standards", "type": "in vivo", "settings": "all samples at 0.32 g/L, compared with Steviol glycosides", "description": "For the initial tasting sucrose standards were prepared at 4, 6, 8 and 10% (w/v) sucrose. Aiming for 8% sucrose equivalence all HIS and enzyme modified samples were also prepared at 0.32 g/L. From the initial tasting it had been concluded that the sucrose standard range needed to be reduced to 2, 4, 6 and 8% as the 10% sample was too extreme."}, "[3]": {"settings": "reported; cited from earlier work"}, "[4]": {"test": "Reported bitterness of steviol glycosides and sucrose equivalence (literature)", "type": "in vivo, human", "description": "Often sweeteners are compared to sucrose at 8% sucrose equivalent (Prakash, G. E. DuBois, J. F. Clos, K. L. Wilkens, L. E. Fosdick. (2008). Development of rebiana, a natural, non-caloric sweetener. Food and Chemical Toxicology. Volume 46, Issue 7, Pages S75-S82. Previous literature (Caroline Hellfritsch, Anne Brockhoff, Frauke Stähler, Wolfgang Meyerhof, and Thomas Hofmann (2012). Human Psychometric and Taste Receptor Responses to Steviol Glycosides. Journal of Agricultural and Food Chemistry 2012 60 (27), 6782-6793) has shown bitterness of steviol glycosides to be most obvious at around 1000 μM which for Rebaudioside A would be 0.97 g/L, equivalent to 24% sucrose. However, solutions of 100 μM are also bitter which for Rebaudioside A would be 0.097 g/L, equivalent to 2.4% sucrose. Therefore, it was decided to test solutions at equivalent sweetness levels above 2% sucrose to ensure that both sweetness and bitterness could be evaluated in levels applicable to final application."}, "[5]": {"settings": "modified high intensity sweetener compared to un-modified"}}, "note": "Marks after values point to notes of the source that are not given here.", "data": [{"smiles": "C[C@H](CC[C@@H](O[C@@H]1O[C@H](CO[C@@H]2O[C@H](CO)[C@@H](O)[C@H](O)[C@H]2O)[C@@H](O)[C@H](O)[C@H]1O[C@@H]1O[C@H](CO)[C@@H](O)[C@H](O)[C@H]1O)C(C)(C)O)[C@H]1CC[C@@]2(C)[C@@H]3CC=C4[C@@H](CC[C@H](O[C@@H]5O[C@H](CO[C@@H]6O[C@H](CO)[C@@H](O)[C@H](O)[C@H]6O)[C@@H](O)[C@H](O)[C@H]5O)C4(C)C)[C@]3(C)[C@H](O)C[C@]12C", "note": "[Mogroside, Mogroside V]", "values": [{"measurement": "effect of enzymatic modification on liquorice flavour", "setting": "[1]; CGTase modified vs unmodified", "value": "significantly reduced"}, {"measurement": "effect of enzyme modification on sweetness", "setting": "[1]; CGTase modified vs unmodified", "value": "reduced the sweetness"}, {"measurement": "Sweet Taste Intensity", "setting": "[1]", "value": 47.3}, {"measurement": "ES (equivalent sucrose concentration)", "setting": "[1]", "value": 4.5, "unit": "%"}, {"measurement": "Bitter Taste", "setting": "[1]", "value": "7.3^c"}, {"measurement": "Cardboard/Stale Flavour", "setting": "[1]", "value": "0.7^c"}, {"measurement": "Cooked sugar flavour", "setting": "[1]", "value": "3.2^ab"}, {"measurement": "Cooling Sensation", "setting": "[1]", "value": "2.6^ab"}, {"measurement": "Crusty Bread Flavour", "setting": "[1]", "value": "3.3^a"}, {"measurement": "Liquorice Flavour", "setting": "[1]", "value": "21.4^a"}, {"measurement": "Metallic", "setting": "[1]", "value": "3.4^b"}, {"measurement": "Overall Strength of Off Taste/Flavour", "setting": "[1]", "value": "25.6^cd"}, {"measurement": "Perfume Flavour", "setting": "[1]", "value": "0.3^a"}, {"measurement": "Salty Taste", "setting": "[1]", "value": "0.8^a"}, {"measurement": "Sour Taste", "setting": "[1]", "value": "1.2^b"}, {"measurement": "Sweet Taste", "setting": "[1]", "value": "47.3^b"}, {"measurement": "Bitter Aftertaste", "setting": "[1]", "value": "4.6^c"}, {"measurement": "Cooling Aftereffect", "setting": "[1]", "value": "1.6^ab"}, {"measurement": "Liquorice Aftereffect", "setting": "[1]", "value": "10.8^bc"}, {"measurement": "Sweet Aftertaste", "setting": "[1]", "value": "28.2^b"}, {"measurement": "Bitter taste: reduction %", "setting": "[1]; [5]", "value": 0, "unit": "%"}, {"measurement": "Bitter taste: reduction ratio", "setting": "[1]; [5]", "value": 0}, {"measurement": "Liquorice taste: reduction %", "setting": "[1]; [5]", "value": 41, "unit": "%"}, {"measurement": "Liquorice taste: reduction ratio", "setting": "[1]; [5]", "value": 1.7}, {"measurement": "Metallic: reduction %", "setting": "[1]; [5]", "value": 67, "unit": "%"}, {"measurement": "Metallic: reduction ratio", "setting": "[1]; [5]", "value": 3}, {"measurement": "Potency", "setting": "[1]", "value": 188}, {"measurement": "liquorice flavour compared between sweeteners", "setting": "[1]", "value": "equivalent in liquorice flavour"}, {"measurement": "sweetness in initial tasting", "setting": "[2]", "value": "considered sweeter than the Steviol glycosides"}, {"measurement": "sweet potency relative to sucrose", "setting": "[3]", "value": "~400", "unit": "×"}]}, {"smiles": "C=C1C[C@@]23CC[C@H]4[C@@](C)(CCC[C@@]4(C)C(=O)O[C@@H]4O[C@H](CO)[C@@H](O)[C@H](O)[C@H]4O)[C@@H]2CC[C@]1(O[C@@H]1O[C@H](CO)[C@@H](O)[C@H](O[C@@H]2O[C@H](CO)[C@@H](O)[C@H](O)[C@H]2O)[C@H]1O[C@@H]1O[C@H](CO)[C@@H](O)[C@H](O)[C@H]1O)C3", "note": "[Reb, Rebaudioside A]", "values": [{"measurement": "effect of enzyme modification on sweetness", "setting": "[1]; CGTase modified vs unmodified", "value": "reduced the sweetness"}, {"measurement": "sweetness compared between sweeteners", "setting": "[1]; Rebaudioside A 0.24 g/L vs Steviol glycosides 0.32 g/L and Mogroside V 0.24 g/L", "value": "significantly more sweet"}, {"measurement": "Sweet Taste Intensity", "setting": "[1]", "value": 60.3}, {"measurement": "ES (equivalent sucrose concentration)", "setting": "[1]", "value": 5.3, "unit": "%"}, {"measurement": "Bitter Taste", "setting": "[1]", "value": "10.8^bc"}, {"measurement": "Cardboard/Stale Flavour", "setting": "[1]", "value": "0.6^c"}, {"measurement": "Cooked sugar flavour", "setting": "[1]", "value": "3.9^a"}, {"measurement": "Cooling Sensation", "setting": "[1]", "value": "4.7^a"}, {"measurement": "Crusty Bread Flavour", "setting": "[1]", "value": "0.5^bc"}, {"measurement": "Liquorice Flavour", "setting": "[1]", "value": "24.2^a"}, {"measurement": "Metallic", "setting": "[1]", "value": "2.7^bc"}, {"measurement": "Overall Strength of Off Taste/Flavour", "setting": "[1]", "value": "31.9^bc"}, {"measurement": "Perfume Flavour", "setting": "[1]", "value": "0.4^a"}, {"measurement": "Salty Taste", "setting": "[1]", "value": "1.6^a"}, {"measurement": "Sour Taste", "setting": "[1]", "value": "0.9^b"}, {"measurement": "Sweet Taste", "setting": "[1]", "value": "60.3^a"}, {"measurement": "Bitter Aftertaste", "setting": "[1]", "value": "6.5^bc"}, {"measurement": "Cooling Aftereffect", "setting": "[1]", "value": "2.1^a"}, {"measurement": "Liquorice Aftereffect", "setting": "[1]", "value": "11.6^bc"}, {"measurement": "Sweet Aftertaste", "setting": "[1]", "value": "34.8^a"}, {"measurement": "Potency", "setting": "[1]", "value": 223}, {"measurement": "liquorice flavour compared between sweeteners", "setting": "[1]", "value": "equivalent in liquorice flavour"}, {"measurement": "equivalent sucrose", "setting": "[4]; 100 μM = 0.097 g/L", "value": 2.4, "unit": "% sucrose"}, {"measurement": "equivalent sucrose", "setting": "[4]; 1000 μM = 0.97 g/L", "value": 24, "unit": "% sucrose"}, {"measurement": "sweetness in initial tasting", "setting": "[2]", "value": "considered sweeter than the Steviol glycosides"}, {"measurement": "sweet potency relative to sucrose", "setting": "[3]", "value": "~250", "unit": "×"}]}, {"smiles": "OC[C@H]1O[C@@](CO)(O[C@H]2O[C@H](CO)[C@@H](O)[C@H](O)[C@H]2O)[C@@H](O)[C@@H]1O", "note": "[Sucrose]", "values": [{"measurement": "Mean Rating (0-100)", "setting": "[1]; sucrose standard 1, 2.0 % w/v", "value": 10}, {"measurement": "Mean Rating (0-100)", "setting": "[1]; sucrose standard 2, 4.0 % w/v", "value": 35}, {"measurement": "Mean Rating (0-100)", "setting": "[1]; sucrose standard 3, 6.0 % w/v", "value": 75}, {"measurement": "Mean Rating (0-100)", "setting": "[1]; sucrose standard 4, 8.0 % w/v", "value": 100}]}]}
